Source: patent US12594276B2, “Inhibitors of human immunodeficiency virus replication” (ViiV Healthcare UK (No.5) Limited, priority 2024, dated 2026)

Experiments:
[1] = test system: recombinant NL4-3 virus (nef section replaced with Renilla luciferase gene) in MT-2 cells; assay: HIV cell culture assay (antiviral activity, luciferase readout); assay type: cell-based; settings: Renilla, NL43, MT-2 cells infected for 4-5 days with recombinant NL4-3 Renilla luciferase virus
Method in brief: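 EC50 was derived by median-effect fitting of Renilla luciferase signal from MT-2 cells. These cells were infected for 4–5 days with NL4-3 reporter virus (nef partly replaced by luciferase; made in 293T cells) in the presence of serially diluted compound. Activity was quantified with a live-cell luciferase substrate.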

[2] = Compound cytotoxicity, XTT-based colorimetric assay; assay type: cell-based; settings: human; uninfected MT2 cells, day 4, XTT; read-out: CC50
Method in brief: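 Follows the antiviral assay procedure, but with uninfected MT2 cells. On day 4, cell viability is measured by XTT-based colorimetry, giving CC50 values.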

**Q.** For `COCCCn1nc(NS(C)(=O)=O)c2c(Cl)ccc(-n3c([C@H](Cc4cc(F)cc(F)c4)NC(=O)Cn4nc(C(F)F)c5c4C(F)(F)[C@@H]4C[C@H]54)nc4nc(C5CCC(F)(F)CC5)cc(NCCN5CCOCC5)c4c3=O)c21` (atropisomer, axis not shown; (P)) [Example 430, N-[(1S)-1-[(3P)-3-[4-chloro-3-methanesulfonamido-1-(3-methoxypropyl)-1H-indazol-7-yl]-7-(4,4-difluorocyclohexyl)-5-{[2-(morpholin-4-yl)ethyl]amino}-4-oxo-3H,4H-pyrido[2,3-d]pyrimidin-2-yl]-2-(3,5-difluorophenyl)ethyl]-2-[(2S,4R)-9-(difluoromethyl)-5,5-difluoro-7,8-diazatricyclo[4.3.0.0^2,^4]nona-1(6),8-dien-7-yl]acetamide], which EC50 [1] is on record?
**A.** 0.011 nM

**Q.** What about the CC50 at 4 days [2] of the same compound?
**A.** > 20 nM

**Q.** Which EC50 [1] does the source give for `COCCCn1nc(NS(C)(=O)=O)c2c(Cl)ccc(-n3c([C@H](Cc4cc(F)cc(F)c4)NC(=O)Cn4nc(C(F)F)c5c4C(F)(F)[C@@H]4C[C@H]54)nc4nc(C5CCC(F)(F)CC5)cc(NCC5CCOCC5)c4c3=O)c21` (atropisomer, axis not shown; (P)) [Example 431, N-[(1S)-1-[(3P)-3-[4-chloro-3-methanesulfonamido-1-(3-methoxypropyl)-1H-indazol-7-yl]-7-(4,4-difluorocyclohexyl)-5-{[(oxan-4-yl)methyl]amino}-4-oxo-3H,4H-pyrido[2,3-d]pyrimidin-2-yl]-2-(3,5-difluorophenyl)ethyl]-2-[(2S,4R)-9-(difluoromethyl)-5,5-difluoro-7,8-diazatricyclo[4.3.0.0^2,^4]nona-1(6),8-dien-7-yl]acetamide] here?
**A.** 0.01 nM

**Q.** And the CC50 at 4 days [2]?
**A.** > 20 nM

**Q.** For `COCCCn1nc(NS(C)(=O)=O)c2c(Cl)ccc(-n3c([C@H](Cc4cc(F)cc(F)c4)NC(=O)Cn4nc(C(F)F)c5c4C(F)(F)[C@@H]4C[C@H]54)nc4nc(C5CCC(F)(F)CC5)cc(NCCNC(C)=O)c4c3=O)c21` (atropisomer, axis not shown; (P)) [Example 432, N-[(1S)-1-[(3P)-3-[4-chloro-3-methanesulfonamido-1-(3-methoxypropyl)-1H-indazol-7-yl]-7-(4,4-difluorocyclohexyl)-5-[(2-acetamidoethyl)amino]-4-oxo-3H,4H-pyrido[2,3-d]pyrimidin-2-yl]-2-(3,5-difluorophenyl)ethyl]-2-[(2S,4R)-9-(difluoromethyl)-5,5-difluoro-7,8-diazatricyclo[4.3.0.0^2,^4]nona-1(6),8-dien-7-yl]acetamide], which EC50 [1] is on record?
**A.** 0.182 nM

**Q.** And the CC50 at 4 days [2]?
**A.** > 20 nM

**Q.** Which EC50 [1] does the source give for `COCCCn1nc(NS(C)(=O)=O)c2c(Cl)ccc(-n3c([C@H](Cc4cc(F)cc(F)c4)NC(=O)Cn4nc(C(F)F)c5c4C(F)(F)[C@@H]4C[C@H]54)nc4nc(C5CCC(F)(F)CC5)cc(NCCC#N)c4c3=O)c21` (atropisomer, axis not shown; (P)) [Example 433, N-[(1S)-1-[(3P)-3-[4-chloro-3-methanesulfonamido-1-(3-methoxypropyl)-1H-indazol-7-yl]-5-[(2-cyanoethyl)amino]-7-(4,4-difluorocyclohexyl)-4-oxo-3H,4H-pyrido[2,3-d]pyrimidin-2-yl]-2-(3,5-difluorophenyl)ethyl]-2-[(2S,4R)-9-(difluoromethyl)-5,5-difluoro-7,8-diazatricyclo[4.3.0.0^2,^4]nona-1(6),8-dien-7-yl]acetamide] here?
**A.** 0.037 nM

**Q.** What about the CC50 at 4 days [2] of the same compound?
**A.** > 20 nM
